# Test results from PubChem BioAssay (NCI).
#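 Dose response: 5 concentrations. Exposure: 48 h. Format: 96-well plates. Endpoint: linear interpolation; highest concentration if not reached. GI50 is the concentration that inhibits growth by half. At the TGI there is no net growth.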
# Tests used:
# Assay in all cases: growth of human tumour cells (NCI), 48 h
# MDA-MB-435 = system: MDA-MB-435
# HCC-2998 colon = system: HCC-2998 colon
# SF-295 CNS = system: SF-295 CNS
# A498 renal = system: A498 renal
# RPMI-8226 leukemia = system: RPMI-8226 leukemia
# SK-MEL-28 melanoma = system: SK-MEL-28 melanoma
# SF-268 CNS = system: SF-268 CNS
# BT-549 breast = system: BT-549 breast
# SK-OV-3 ovarian = system: SK-OV-3 ovarian
# SR leukemia = system: SR leukemia
# LOX IMVI melanoma = system: LOX IMVI melanoma
# HL-60(TB) leukemia = system: HL-60(TB) leukemia
# ACHN renal = system: ACHN renal
# SF-539 CNS = system: SF-539 CNS
# SNB-19 CNS = system: SNB-19 CNS
# K-562 leukemia = system: K-562 leukemia
# U251 CNS = system: U251 CNS
# SK-MEL-2 melanoma = system: SK-MEL-2 melanoma
# OVCAR-5 ovarian = system: OVCAR-5 ovarian
# OVCAR-4 ovarian = system: OVCAR-4 ovarian
# COLO 205 colon = system: COLO 205 colon
# UO-31 renal = system: UO-31 renal
# UACC-257 melanoma = system: UACC-257 melanoma
# NCI-H460 lung = system: NCI-H460 lung
# MALME-3M melanoma = system: MALME-3M melanoma
# CAKI-1 renal = system: CAKI-1 renal
# PC-3 prostate = system: PC-3 prostate
# UACC-62 melanoma = system: UACC-62 melanoma
# T-47D breast = system: T-47D breast
# EKVX NSCLC = system: EKVX NSCLC
# NCI-H23 lung = system: NCI-H23 lung
# HOP-62 NSCLC = system: HOP-62 NSCLC
# HCT-15 colon = system: HCT-15 colon
# OVCAR-3 ovarian = system: OVCAR-3 ovarian
# NCI-H522 lung = system: NCI-H522 lung
# TK-10 renal = system: TK-10 renal
# MOLT-4 leukemia = system: MOLT-4 leukemia
# KM12 colon = system: KM12 colon
# NCI-H226 lung = system: NCI-H226 lung
# MCF7 breast = system: MCF7 breast
# M14 melanoma = system: M14 melanoma
# SW-620 colon = system: SW-620 colon
# HS 578T breast = system: HS 578T breast
# HCT-116 colon = system: HCT-116 colon
# HOP-92 NSCLC = system: HOP-92 NSCLC
# CCRF-CEM leukemia = system: CCRF-CEM leukemia
# IGROV1 ovarian = system: IGROV1 ovarian
# SN12C renal = system: SN12C renal
# 786-0 renal = system: 786-0 renal
# SK-MEL-5 melanoma = system: SK-MEL-5 melanoma
# DU-145 prostate = system: DU-145 prostate
# A549 NSCLC = system: A549 NSCLC
# NCI/ADR-RES ovarian = system: NCI/ADR-RES ovarian
# RXF 393 renal = system: RXF 393 renal
# MDA-MB-231 breast = system: MDA-MB-231 breast
# OVCAR-8 ovarian = system: OVCAR-8 ovarian
smiles,measurement,setting,value
c1cc2ccc3cc2cc1CNCCN1CCNCc2ccc4ccc(cc4c2)CNCCN(CCNC3)CCNCc2ccc3ccc(cc3c2)CNCC1,GI50,MDA-MB-435,2.41 µM
same,TGI,MDA-MB-435,6.25 µM
same,GI50,HCC-2998 colon,2.27 µM
same,TGI,HCC-2998 colon,6.4 µM
same,GI50,SF-295 CNS,11.9 µM
same,TGI,SF-295 CNS,38.9 µM
same,GI50,A498 renal,10.9 µM
same,TGI,A498 renal,30.4 µM
same,GI50,RPMI-8226 leukemia,1.62 µM
same,TGI,RPMI-8226 leukemia,6.03 µM
same,GI50,SK-MEL-28 melanoma,2.42 µM
same,TGI,SK-MEL-28 melanoma,6.32 µM
same,GI50,SF-268 CNS,2.25 µM
same,TGI,SF-268 CNS,6.44 µM
same,GI50,BT-549 breast,2.51 µM
same,TGI,BT-549 breast,7.77 µM
same,GI50,SK-OV-3 ovarian,2.8 µM
same,TGI,SK-OV-3 ovarian,8.3 µM
same,GI50,SR leukemia,2.13 µM
same,TGI,SR leukemia,7.87 µM
same,GI50,LOX IMVI melanoma,2.03 µM
same,TGI,LOX IMVI melanoma,4.42 µM
same,GI50,HL-60(TB) leukemia,2.32 µM
same,TGI,HL-60(TB) leukemia,5.53 µM
same,GI50,ACHN renal,39.4 µM
same,TGI,ACHN renal,> 100 µM
same,GI50,SF-539 CNS,1.89 µM
same,TGI,SF-539 CNS,4.87 µM
same,GI50,SNB-19 CNS,2.66 µM
same,TGI,SNB-19 CNS,8.38 µM
same,GI50,K-562 leukemia,1.91 µM
same,TGI,K-562 leukemia,> 100 µM
same,GI50,U251 CNS,1.48 µM
same,TGI,U251 CNS,10.4 µM
same,GI50,SK-MEL-2 melanoma,2.36 µM
same,TGI,SK-MEL-2 melanoma,5.89 µM
same,GI50,OVCAR-5 ovarian,2.38 µM
same,TGI,OVCAR-5 ovarian,7.96 µM
same,GI50,OVCAR-4 ovarian,2.89 µM
same,TGI,OVCAR-4 ovarian,7.22 µM
same,GI50,COLO 205 colon,2.12 µM
same,TGI,COLO 205 colon,6.86 µM
same,GI50,UO-31 renal,> 100 µM
same,TGI,UO-31 renal,> 100 µM
same,GI50,UACC-257 melanoma,3.93 µM
same,TGI,UACC-257 melanoma,> 100 µM
same,GI50,NCI-H460 lung,2.95 µM
same,TGI,NCI-H460 lung,10.8 µM
same,GI50,MALME-3M melanoma,2.11 µM
same,TGI,MALME-3M melanoma,5.58 µM
same,GI50,CAKI-1 renal,41 µM
same,TGI,CAKI-1 renal,> 100 µM
same,GI50,PC-3 prostate,2.22 µM
same,TGI,PC-3 prostate,6.99 µM
same,GI50,UACC-62 melanoma,2.37 µM
same,TGI,UACC-62 melanoma,6.95 µM
same,GI50,T-47D breast,2.05 µM
same,TGI,T-47D breast,7.54 µM
same,GI50,EKVX NSCLC,4.84 µM
same,TGI,EKVX NSCLC,> 100 µM
same,GI50,NCI-H23 lung,1.98 µM
same,TGI,NCI-H23 lung,5.99 µM
same,GI50,HOP-62 NSCLC,2.99 µM
same,TGI,HOP-62 NSCLC,13.2 µM
same,GI50,HCT-15 colon,80.1 µM
same,TGI,HCT-15 colon,> 100 µM
same,GI50,OVCAR-3 ovarian,2.66 µM
same,TGI,OVCAR-3 ovarian,8.04 µM
same,GI50,NCI-H522 lung,0.431 µM
same,TGI,NCI-H522 lung,5.56 µM
same,GI50,TK-10 renal,18.6 µM
same,TGI,TK-10 renal,64.8 µM
same,GI50,MOLT-4 leukemia,2.82 µM
same,TGI,MOLT-4 leukemia,9.35 µM
same,GI50,KM12 colon,2.54 µM
same,TGI,KM12 colon,6.47 µM
same,GI50,NCI-H226 lung,2.27 µM
same,TGI,NCI-H226 lung,6.11 µM
same,GI50,MCF7 breast,0.392 µM
same,TGI,MCF7 breast,5.15 µM
same,GI50,M14 melanoma,3.27 µM
same,TGI,M14 melanoma,13.1 µM
same,GI50,SW-620 colon,3.36 µM
same,TGI,SW-620 colon,> 100 µM
same,GI50,HS 578T breast,3 µM
same,TGI,HS 578T breast,17.4 µM
same,GI50,HCT-116 colon,2.57 µM
same,TGI,HCT-116 colon,8.82 µM
same,GI50,HOP-92 NSCLC,1.31 µM
same,TGI,HOP-92 NSCLC,5.41 µM
same,GI50,CCRF-CEM leukemia,2.34 µM
same,TGI,CCRF-CEM leukemia,> 100 µM
same,GI50,IGROV1 ovarian,2.89 µM
same,TGI,IGROV1 ovarian,13.1 µM
same,GI50,SN12C renal,1.71 µM
same,TGI,SN12C renal,8.57 µM
same,GI50,786-0 renal,10.4 µM
same,TGI,786-0 renal,35.4 µM
same,GI50,SK-MEL-5 melanoma,56 µM
same,TGI,SK-MEL-5 melanoma,> 100 µM
same,GI50,DU-145 prostate,2.1 µM
same,TGI,DU-145 prostate,5.83 µM
same,GI50,A549 NSCLC,2.62 µM
same,TGI,A549 NSCLC,> 100 µM
same,GI50,NCI/ADR-RES ovarian,> 100 µM
same,TGI,NCI/ADR-RES ovarian,> 100 µM
same,GI50,RXF 393 renal,17.3 µM
same,TGI,RXF 393 renal,39.4 µM
same,GI50,MDA-MB-231 breast,1.91 µM
same,TGI,MDA-MB-231 breast,6.99 µM
same,GI50,OVCAR-8 ovarian,3.61 µM
same,TGI,OVCAR-8 ovarian,> 100 µM
